From patent US20230203081A1, “LINCOSAMIDE ANTIBIOTICS AND USES THEREOF” (President and Fellows of Harvard College, priority 2020, published 2023)
≈ marks a conversion by molar mass, not a printed value. Where two headings read alike, the source gives them in different places.

How the values were obtained:
Format in all cases: cell-based
[1] = system: E. faecium Line R & VRE; assay: MIC (broth microdilution or agar dilution, CLSI)
In short: (§1)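 Triplicate CLSI determinations by broth or agar dilution, compound at 128-0.06 μg/mL in 2.5% DMSO; special handling for anaerobes. Broth microdilution used 5×10^5 CFU/mL inocula in cation-adjusted Mueller-Hinton broth.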

[2] = system: P. aeruginosa ΔAmex OprM; assay: MIC (broth microdilution or agar dilution, CLSI)
In short: as §1

[3] = system: P. aeruginosa ATCC 27853; assay: MIC (broth microdilution or agar dilution, CLSI)
In short: as §1

[4] = system: S. pyogenes ATCC 19615; assay: MIC (broth microdilution or agar dilution, CLSI)
In short: (§2)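 Isolates other than streptococci and anaerobes, which had their own procedures, were grown overnight at 35° C on tryptic soy agar with 5% sheep blood. Suspensions were then diluted to a final inoculum of 5×10^5 CFU/mL in broth microdilution wells.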

[5] = system: A. baumannii ATCC 19606; assay: MIC (broth microdilution or agar dilution, CLSI)
In short: as §2

[6] = system: E. coli ATCC 25922; assay: MIC (broth microdilution or agar dilution, CLSI)
In short: as §2

[7] = system: K. oxytoca Clinical; assay: MIC (broth microdilution or agar dilution, CLSI)
In short: as §2

[8] = system: E. faecalis VRE; assay: MIC (CLSI), second E. faecalis VRE line of Table 4; conditions: Enterococcus faecalis, VRE
Procedure: (§3) Minimum inhibitory concentrations (MICs) were determined by broth microdilution method or agar dilution method following the Clinical and Laboratory Standards Institute guidelines. Standard bacterial strains were obtained from American Type Culture Collection (ATCC). Other bacterial strains were obtained from hospitals and commercial sources, so noted in Table 11. Before the start of the MIC experiment, standard and test compound stock solutions were prepared in dimethyl sulfoxide (DMSO, Aldrich D2650) at a stock concentration of 5,120 μg/mL. The compound concentration range typically employed for each experiment was 128-0.06 μg/mL (2.5% final DMSO concentration). Clindamycin was used as a comparator in all experiments and each experiment was performed in triplicate. Specialized procedures were employed for streptococcal and anaerobic strains. All other bacterial strains were sub-cultured on blood agar plates (tryptic soy agar with 5% sheep blood, Hardy Diagnostics) and incubated overnight at 35° C. Organisms were suspended in cation-adjusted Mueller-Hinton broth (CaMHB, BD 212322) and optical density was adjusted to 0.5 McFarland standard. Suspensions were further diluted to obtain a final inoculum of 5×10^5 CFU/mL for broth microdilution experiments.

[9] = system: Escherichia coli c-ermB; assay: MIC, clinically derived E. coli with acquired resistance; conditions: Escherichia coli
Procedure: as §3

[10] = system: E. coli strain SQ110DTC; assay: MIC in LB medium against E. coli SQ110DTC and its FSA-513018b-resistant mutants (Table 14); conditions: Escherichia coli
[11] = system: E. faecium VRE; assay: MIC (broth microdilution or agar dilution, CLSI); conditions: Enterococcus faecium, VRE
In short: as §1

[12] = system: C. difficile ATCC 700057; assay: MIC (broth microdilution or agar dilution, CLSI)
In short: as §1

[13] = system: E. faecium Clinical VRE; assay: MIC (broth microdilution or agar dilution, CLSI); conditions: Enterococcus faecium, VRE
In short: as §1

[14] = system: S. aureus MRSA; assay: MIC (broth microdilution or agar dilution, CLSI); conditions: Staphylococcus aureus
In short: as §1

[15] = system: B. fragilis ATCC 25285; assay: MIC (broth microdilution or agar dilution, CLSI); conditions: Bacteroides fragilis, read-out: MIC
In short: as §1

[16] = system: S. aureus cErmA; assay: MIC (broth microdilution or agar dilution, CLSI); conditions: Staphylococcus aureus
In short: as §1

[17] = system: E. coli MP-74 LptD mutant; assay: MIC (broth microdilution or agar dilution, CLSI); conditions: Escherichia coli
In short: as §1

[18] = system: C. scindens ATCC 35704; assay: MIC (broth microdilution or agar dilution, CLSI)
In short: as §1

[19] = system: E. faecalis VRE; assay: MIC (CLSI), third E. faecalis VRE line of Table 4; conditions: Enterococcus faecalis, VRE
Procedure: as §3

[20] = E. faecium HAV#319, Line R & Vanco R
[21] = P. aeruginosa HAV#039, ΔAmex OprM
[22] = P. aeruginosa HAV#009, ATCC 27853
[23] = A. baumanii HAV#010, ATCC 19606
[24] = Streptococcus pyogenes, ATCC19615, S. pyogenes HAV#004, ATCC 19615, read-out: MIC
[25] = Klebsiella oxytoca, K. oxytoca HAV#450, Clinical, read-out: MIC
[26] = Escherichia coli, ATCC25922, E. coli HAV#006, ATCC 25922

Compound: Gentamicin
- MIC [1, 20]: 64 µg/mL
- MIC [2, 21]: >64 µg/mL
- MIC [3, 22]: >64 µg/mL
- MIC ([4]; S. pyogenes HAV#004, ATCC 19615): 8 µg/mL
- MIC [5, 23]: >64 µg/mL
- MIC ([6]; E. coli HAV#006, ATCC 25922): 2 µg/mL
- MIC ([7]; K. oxytoca HAV#450, Clinical): 4 µg/mL

Compound: CC[C@H]1OC(=O)[C@H](C)[C@@H](O[C@H]2C[C@@](C)(OC)[C@@H](O)[C@H](C)O2)[C@H](C)[C@@H](O[C@@H]2O[C@H](C)C[C@H](N(C)C)[C@H]2O)[C@](C)(O)C[C@@H](C)CN(C)[C@H](C)[C@@H](O)[C@]1(C)O [Azithromycin]
- MIC ([1]; Enterococcus faecium, E. faecium HAV#319, Line R & Vanco R, read-out: MIC): 8 µg/mL (≈ 10.7 µM)
- MIC [4, 24]: 0.06 µg/mL (≈ 0.0801 µM)
- MIC ([5]; Acinetobacter baumannii, ATCC19606, A. baumanii HAV#010, ATCC 19606, read-out: MIC): 64 µg/mL (≈ 85.4 µM)
- MIC ([6]; Escherichia coli, ATCC25922, E. coli HAV#006, ATCC 25922, read-out: MIC): 4 µg/mL (≈ 5.34 µM)
- MIC [7, 25]: 16 µg/mL (≈ 21.4 µM)

Compound: C[C@H]1c2cccc(O)c2C(=O)C2=C(O)[C@]3(O)C(=O)C(C(N)=O)=C(O)[C@@H](N(C)C)[C@@H]3[C@@H](O)[C@@H]21 [Doxycycline]
- MIC [4, 24]: 0.125 µg/mL (≈ 0.281 µM)
- MIC [7, 25]: 8 µg/mL (≈ 18 µM)

Compound: CCC[C@@H]1C[C@@H](C(=O)N[C@@H]([C@H]2O[C@H](SC)[C@H](O)[C@@H](O)[C@H]2O)[C@H](C)Cl)N(C)C1 [Clindamycin, clindamycin, reference compound]
- MIC [8]: > 128 µg/mL
- MIC [9]: > 128 µg/mL
- MIC ([10]; E. coli SQ110DTC, WT): 16 µg/mL (≈ 37.6 µM)
- MIC ([10]; clone SA-3R1, mutation 2058G, selection plate 1 μg/mL FSA-513018b): > 128 µg/mL
- MIC ([10]; clone SA-3R2, mutation 2059G, selection plate […] FSA-513018b): > 128 µg/mL
- MIC ([10]; clone SA-3R9, mutation 2058G, selection plate […] FSA-513018b): > 128 µg/mL
- MIC ([10]; clone SA-3R13, mutation 2059G, selection plate 1 μg/mL FSA-513018b): > 128 µg/mL
- MIC [11]: > 128 µg/mL
- MIC ([12]; C. difficile HAV#011, ATCC 700057): 8 µg/mL (≈ 18.8 µM)
- MIC ([12]; Clostridioides difficile, ATCC700057, C. difficile ATCC 700057, read-out: MIC): 8 µg/mL (≈ 18.8 µM)
- MIC [13]: > 128 µg/mL
- MIC [1, 20]: >128 µg/mL
- MIC ([1]; Enterococcus faecium): > 128 µg/mL
- MIC [14]: 0.25 µg/mL (≈ 0.588 µM)
- MIC [2, 21]: 32 µg/mL (≈ 75.3 µM)
- MIC ([2]; Pseudomonas aeruginosa): 32 µg/mL (≈ 75.3 µM)
- MIC [3, 22]: >128 µg/mL
- MIC ([3]; Pseudomonas aeruginosa, ATCC27853): > 128 µg/mL
- MIC ([15]; ATCC25285, B. fragilis ATCC 25285): 1 µg/mL (≈ 2.35 µM)
- MIC ([15]; ATCC25285, B. fragilis HAV#013, ATCC 25285): 0.5 µg/mL (≈ 1.18 µM)
- MIC [16]: > 128 µg/mL
- MIC [17]: 4 µg/mL (≈ 9.41 µM)
- MIC ([18]; C. scindens HAV#012, ATCC 35704): 2 µg/mL (≈ 4.71 µM)
- MIC ([18]; [Clostridium] scindens, ATCC35704, C. scindens ATCC 35704, read-out: MIC): 2 µg/mL (≈ 4.71 µM)
- MIC ([4]; Streptococcus pyogenes, ATCC19615, S. pyogenes ATCC 19615, read-out: MIC): ≤ 0.06 µg/mL
- MIC [4, 24]: 0.06 µg/mL (≈ 0.141 µM)
- MIC [5, 23]: >128 µg/mL
- MIC ([5]; Acinetobacter baumannii, ATCC19606): > 128 µg/mL
- MIC ([6]; Escherichia coli, ATCC25922, E. coli ATCC 25922): > 128 µg/mL
- MIC ([6]; Escherichia coli, ATCC25922, E. coli ATCC 25922, read-out: MIC): > 64 µg/mL
- MIC [6, 26]: > 128 µg/mL
- MIC ([7]; K. oxytoca HAV#450, Clinical): >128 µg/mL
- MIC ([7]; Klebsiella oxytoca): > 128 µg/mL
- MIC [19]: > 128 µg/mL

Compound: CC(=O)NC[C@H]1CN(c2ccc(N3CCOCC3)c(F)c2)C(=O)O1 [Linezolid]
- MIC [4, 24]: 2 µg/mL (≈ 5.93 µM)
- MIC [6, 26]: > 128 µg/mL
